Columns and labels:
[1] = tested on: bone marrow cells from mouse femur; assay: Hematopoietic toxicity in mouse having intraperitoneal injection of anticancer agent (in vivo), bone marrow cell count; design: species or system C57BL/6 mouse; conditions: docetaxel i.p. 50, 100, or 150 mg/kg; three days and seven days after injection; FIG. 2
Description: A C57BL/6 mouse was subjected to intraperitoneal injection of docetaxel at 50, 100, or 150 mg/kg. Three days and seven days after the injection, bone marrow cells were isolated from the mouse femur and counted, and the survival rate was measured.

[2] = tested on: animal model having bone marrow suppression induced by docetaxel; assay: Alleviation of bone marrow suppression in animal model having bone marrow suppression induced by docetaxel; type: in vivo, C57BL/6 mice
Description: After that, a change brought by the Phragmitis Rhizoma extract was determined.
Specifically, C57BL/6 mice were categorized into 4 groups. Group 1 is a control, i.e., a group treated with saline containing 5% ethanol and 2% polysorbate 80. Group 2 is a docetaxel treatment group, i.e., a group with intraperitoneal injection (3 times) of 30 mg/kg docetaxel. Group 3 is a docetaxel and 125 mg/kg Phragmitis Rhizoma extract administration group, i.e., a group to which compulsory administration of 125 mg/kg Phragmitis Rhizoma extract was carried out, once a day starting from 2 days before the administration of docetaxel, and the compulsory administration of 125 mg/kg Phragmitis Rhizoma extract (once a day) was continued even for the 3 days of administering docetaxel. Lastly, Group 4 is a docetaxel and 250 mg/kg Phragmitis Rhizoma extract administration group, i.e., a group to which administration of 250 mg/kg Phragmitis Rhizoma extract was carried out, in the same manner as above Group 3, once a day starting from 2 days before the administration of docetaxel, and the compulsory administration of 250 mg/kg Phragmitis Rhizoma extract (once a day) was continued even for the 3 days of administering docetaxel.
After that, a change in body weight of the mouse belonging to each of the control group, docetaxel administration group, combined administration group with docetaxel and 125 mg/kg Phragmitis Rhizoma extract, and combined administration group with docetaxel and 250 mg/kg Phragmitis Rhizoma extract was measured every day. On Day 6, the mouse was sacrificed and the weight of the spleen and thymus, which play an important role in determining cell number change in bone marrow and hematopoiesis, was measured.
Organ index (mg/g)=Weight of organ (mg)/Weight of animal (g)

[3] = tested on: animal model having docetaxel-induced bone marrow suppression; assay: Blood cell numbers in animal model having docetaxel-induced bone marrow suppression; type: in vivo, C57BL/6 mice
Description: In order to determine the influence of Phragmitis Rhizoma extract on blood parameters of an animal model having bone marrow suppression, bone marrow suppression was induced by intraperitoneal injection of docetaxel to a mouse. After that, a change brought by the Phragmitis Rhizoma extract was determined.
Specifically, C57BL/6 mice were categorized into 5 groups. Group 1 is a control, i.e., a group treated with saline containing 5% ethanol and 2% polysorbate 80. Group 2 is a docetaxel treatment group, i.e., a group with intraperitoneal injection (3 times) of 30 mg/kg docetaxel. Group 3 is a docetaxel and 30 mg/kg Phragmitis Rhizoma extract administration group, i.e., a group to which compulsory administration of 30 mg/kg Phragmitis Rhizoma extract was carried out, once a day starting from 2 days before the administration of docetaxel, and the compulsory administration of 30 mg/kg Phragmitis Rhizoma extract (once a day) was continued even for the 3 days of administering docetaxel. Group 4 is a docetaxel and 100 mg/kg Phragmitis Rhizoma extract administration group, i.e., a group to which administration was carried out in the same manner as above Group 3. Lastly, Group 5 is a docetaxel and 300 mg/kg Phragmitis Rhizoma extract administration group, i.e., a group to which administration was carried out in the same manner as Group 3.
Blood was taken from the animal and a change in the number of blood cells was determined.

[4] = docetaxel 30 mg/kg i.p. 3 times, alone, Day 6
[5] = docetaxel 30 mg/kg i.p. 3 times, alone, mean ± SEM, ten mice

- number of bone marrow cells (bone marrow mononuclear cells) ([2]; docetaxel 30 mg/kg i.p. 3 times, alone, vs control, FIG. 5): decreased significantly
- Spleen index [2, 4]: 2.366 ± 0.22 mg/g
- Thymus index [2, 4]: 0.911 ± 0.22 mg/g
- organ index of spleen and thymus (in words) ([2]; docetaxel alone): a decrease in organ index
- expression of IL-3 (mRNA, spleen tissue) ([2]; docetaxel alone, FIG. 8): largely decreased
- Lymphocytes [3, 5]: 1.56 ± 0.22
- Neutrophils [3, 5]: 0.30 ± 0.01
- RBCs [3, 5]: 7.72 ± 0.15
- WBCs [3, 5]: 2.09 ± 0.19
SMILES: CC(=O)O[C@@]12CO[C@@H]1C[C@H](O)[C@@]1(C)C(=O)[C@H](O)C3=C(C)[C@@H](OC(=O)[C@H](O)[C@@H](NC(=O)OC(C)(C)C)c4ccccc4)C[C@@](O)([C@@H](OC(=O)c4ccccc4)[C@H]21)C3(C)C [docetaxel]
- number of isolated bone marrow cells [1]: a decrease in the number of the isolated bone marrow cells was observed in significant sense
- body weight ([2]; docetaxel 30 mg/kg i.p. 3 times, alone, FIG. 4): a significant decrease in body weight was induced
- histopathological analysis of thymus ([2]; docetaxel administration, FIG. 7): organ shrinkage and loss of functional lymphoid organ
- histological analysis of femur (H&E) ([2]; docetaxel only, FIG. 6): a hypocellularity and an abnormality in cellular structure in bone marrow
- number of blood cells (in words) ([3]; docetaxel administration group): a decrease in the number of the white blood cells, neutrophils, lymphocytes, and red blood cells

Reference: US20210205398A1, “COMPOSITIONS CONTAINING PHRAGMITIS RHIZOMA EXTRACT AS ACTIVE INGREDIENT FOR PREVENTION, AMELIORATION, OR TREATMENT OF A DISORDER CAUSED BY SIDE EFFECT OF ANTICANCER AGENT” (KOREA INSTITUTE OF ORIENTAL MEDICINE, priority 2016, published 2021)
